From ChEMBL document CHEMBL1201862, “PubChem BioAssay data set” (2004)
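Interpolation was linear, between the two tested concentrations surrounding the appropriate level; five concentrations were tested over 48 hours in 96-well plates. At the GI50, growth is halved.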 The source made the active and inactive calls. Rule as the data show it: active = GI50 up to about 1.1 µM and inactive = higher.

How the values were obtained:
Experiment in all cases: NCI-60 cell line screen, 48 h
BT-549 = system: BT-549
IGROV-1 = system: IGROV-1
HOP-92 = system: HOP-92
NCI-H460 = system: NCI-H460
MDA-N = system: MDA-N
SK-MEL-28 = system: SK-MEL-28
NCI-H226 = system: NCI-H226
CAKI-1 = system: CAKI-1
CCRF-CEM = system: CCRF-CEM
SK-MEL-5 = system: SK-MEL-5
SNB-19 = system: SNB-19
A549 = system: A549
MCF7 = system: MCF7
PC-3 = system: PC-3
OVCAR-8 = system: OVCAR-8
MDA-MB-231 = system: MDA-MB-231
COLO 205 = system: COLO 205
MDA-MB-435 = system: MDA-MB-435
RXF 393 = system: RXF 393

Structure (SMILES) | GI50 (BT-549) | GI50 (IGROV-1) | GI50 (HOP-92) | GI50 (NCI-H460) | GI50 (MDA-N) | GI50 (SK-MEL-28) | GI50 (NCI-H226) | GI50 (CAKI-1) | GI50 (CCRF-CEM) | GI50 (SK-MEL-5) | GI50 (SNB-19) | GI50 (A549) | GI50 (MCF7) | GI50 (PC-3) | GI50 (OVCAR-8) | GI50 (MDA-MB-231) | GI50 (COLO 205) | GI50 (MDA-MB-435) | GI50 (RXF 393)
CN(CC(=O)O)Cc1oc(CO)cc(=O)c1O | > 100 µM (inactive) | > 100 µM (inactive) | > 100 µM (inactive) | > 100 µM (inactive) | > 100 µM (inactive) | > 100 µM (inactive) | > 100 µM (inactive) | > 100 µM (inactive) | > 100 µM (inactive) | > 100 µM (inactive) | > 100 µM (inactive) | > 100 µM (inactive) | > 100 µM (inactive) | > 100 µM (inactive) | > 100 µM (inactive) | > 100 µM (inactive) | > 100 µM (inactive) | > 100 µM (inactive) | > 100 µM (inactive)
Cc1c(C#N)c2nnn(-c3ccc(Cl)cc3)c(=O)n2c1-c1ccccc1 | 0.37 µM (active) | 0.113 µM (active) | 0.474 µM (active) | 0.0991 µM (active) | 0.0173 µM (active) | 10.7 µM (inactive) | 0.114 µM (active) | 0.251 µM (active) | 0.0991 µM (active) | 0.0605 µM (active) | 0.195 µM (active) | 0.166 µM (active) | 0.42 µM (active) | 0.0459 µM (active) | 0.163 µM (active) | 0.102 µM (active) | 0.0357 µM (active) | < 0.0188 µM (active) | 0.0764 µM (active)
COC(=O)c1ccccc1CC1Cc2ccc3c(c2C1=O)CCC3 (stereo not given) | 34.7 µM (inactive) | > 100 µM (inactive) | 22.4 µM (inactive) | 92.3 µM (inactive) | 33.5 µM (inactive) | 37.2 µM (inactive) | 77.8 µM (inactive) | 55.1 µM (inactive) | 55.8 µM (inactive) | 23 µM (inactive) | > 100 µM (inactive) | > 100 µM (inactive) | 20.7 µM (inactive) | 22.5 µM (inactive) | 49.5 µM (inactive) | 46.2 µM (inactive) | 29.9 µM (inactive) | 24.9 µM (inactive) | 35.4 µM (inactive)
COc1ccc(/C(CC2OC(=O)c3ccccc32)=N\NC(=O)C[N+](C)(C)C)cc1 (stereo not given) | 21.5 µM (inactive) | 34.4 µM (inactive) | 23.1 µM (inactive) | 24.6 µM (inactive) | 38.2 µM (inactive) | 19.7 µM (inactive) | 21.7 µM (inactive) | 40.3 µM (inactive) | 25.1 µM (inactive) | 22.5 µM (inactive) | 29.5 µM (inactive) | 36 µM (inactive) | 42 µM (inactive) | 47.8 µM (inactive) | 19.5 µM (inactive) | 57.3 µM (inactive) | 27.5 µM (inactive) | 24.3 µM (inactive) | 25.4 µM (inactive)
S=C1SSC2N=CC=CC12 (stereo not given) | > 100 µM (inactive) | 78.7 µM (inactive) | 74.1 µM (inactive) | 31.4 µM (inactive) | > 100 µM (inactive) | > 100 µM (inactive) | > 100 µM (inactive) | 19.7 µM (inactive) | 5.66 µM (inactive) | 43.3 µM (inactive) | > 100 µM (inactive) | 47.1 µM (inactive) | 36.7 µM (inactive) | 63.4 µM (inactive) | > 100 µM (inactive) | > 100 µM (inactive) | > 100 µM (inactive) | 17.3 µM (inactive) | 46.5 µM (inactive)
O=S(=O)(SC1=NCCN1)c1cccc2ccccc12 | 22.9 µM (inactive) | 21.7 µM (inactive) | 36.8 µM (inactive) | 22.7 µM (inactive) | 18.7 µM (inactive) | 47 µM (inactive) | 21.6 µM (inactive) | 24.9 µM (inactive) | 21.8 µM (inactive) | 19.1 µM (inactive) | 28.7 µM (inactive) | 22.8 µM (inactive) | 30.9 µM (inactive) | 29.8 µM (inactive) | 28.8 µM (inactive) | 22.1 µM (inactive) | 17.8 µM (inactive) | 29.6 µM (inactive) | 23.9 µM (inactive)
O=C1c2ccc3cc(CCl)cc(O)c3c2C(=O)c2cccc(O)c21 | > 10 µM (inactive) | > 10 µM (inactive) | 4.58 µM (inactive) | 3.3 µM (inactive) | 0.169 µM (active) | 1.77 µM (inactive) | 2.7 µM (inactive) | > 10 µM (inactive) | 1.07 µM (active) | 0.604 µM (active) | 4.58 µM (inactive) | 4.61 µM (inactive) | 0.729 µM (active) | 1.81 µM (inactive) | 2.01 µM (inactive) | 1.08 µM (active) | 1.95 µM (inactive) | 0.179 µM (active) | 2.55 µM (inactive)
O=C1CC2C(=O)C1C(C(=O)O)C2C(=O)O (stereo not given) | > 100 µM (inactive) | > 100 µM (inactive) | > 100 µM (inactive) | > 100 µM (inactive) | > 100 µM (inactive) | > 100 µM (inactive) | > 100 µM (inactive) | > 100 µM (inactive) | > 100 µM (inactive) | > 100 µM (inactive) | > 100 µM (inactive) | > 100 µM (inactive) | > 100 µM (inactive) | > 100 µM (inactive) | > 100 µM (inactive) | > 100 µM (inactive) | > 100 µM (inactive) | > 100 µM (inactive) | > 100 µM (inactive)
CC(C)c1c(O)ccc2c1CCC1C(C)(C)CCCC21C (stereo not given) | 18.5 µM (inactive) | 16.3 µM (inactive) | 18.6 µM (inactive) | 17.4 µM (inactive) | 17.1 µM (inactive) | 21.3 µM (inactive) | 17.7 µM (inactive) | 16.3 µM (inactive) | 24.4 µM (inactive) | 16.3 µM (inactive) | 18.2 µM (inactive) | 17 µM (inactive) | 19.1 µM (inactive) | 17.6 µM (inactive) | 17.8 µM (inactive) | 19 µM (inactive) | 17.8 µM (inactive) | 18.6 µM (inactive) | 15.1 µM (inactive)
Cc1ccc(/C=C2\CN(C)CC3C2=NC(=S)NC3c2ccc(C)cc2)cc1 (stereo not given) | > 72.4 µM (inactive) | 13.7 µM (inactive) | 1.69 µM (inactive) | 41.8 µM (inactive) | 22 µM (inactive) | > 100 µM (inactive) | > 100 µM (inactive) | > 77.1 µM (inactive) | 13.8 µM (inactive) | 38.5 µM (inactive) | > 61.9 µM (inactive) | 35.3 µM (inactive) | 40.6 µM (inactive) | 11 µM (inactive) | 53.1 µM (inactive) | > 68.7 µM (inactive) | 22.7 µM (inactive) | 16.7 µM (inactive) | 30.3 µM (inactive)
OCCNCNc1nc(NCNCCO)nc(N(CNCCO)CNCCO)n1 | 21.1 µM (inactive) | 22.6 µM (inactive) | 21.9 µM (inactive) | 21.9 µM (inactive) | 19.2 µM (inactive) | 24.4 µM (inactive) | 22.6 µM (inactive) | 22.4 µM (inactive) | 12.2 µM (inactive) | 15.1 µM (inactive) | 17.1 µM (inactive) | 27.2 µM (inactive) | 28.1 µM (inactive) | 22.3 µM (inactive) | 24.3 µM (inactive) | 22.8 µM (inactive) | 15.7 µM (inactive) | 18.2 µM (inactive) | 15 µM (inactive)
CCN(C(=O)N[C@@H](C)C(=O)N[C@@H](Cc1ccccc1)C(=O)OC)c1ccccc1 | > 100 µM (inactive) | 44.7 µM (inactive) | 19.4 µM (inactive) | 17.5 µM (inactive) | > 100 µM (inactive) | 33.2 µM (inactive) | > 100 µM (inactive) | > 100 µM (inactive) | > 100 µM (inactive) | 95.9 µM (inactive) | > 100 µM (inactive) | > 100 µM (inactive) | > 100 µM (inactive) | > 100 µM (inactive) | 51.3 µM (inactive) | > 100 µM (inactive) | 31.5 µM (inactive) | > 100 µM (inactive) | > 100 µM (inactive)
CC(C)(C)c1ccc2c(c1)OCc1n[nH]c(n1)COc1cc(C(C)(C)C)ccc1OCCOCCO2 | 2.81 µM (inactive) | 5.69 µM (inactive) | 3.88 µM (inactive) | 3.13 µM (inactive) | 3.11 µM (inactive) | 2.7 µM (inactive) | 2.71 µM (inactive) | 4.18 µM (inactive) | 5.31 µM (inactive) | 2.38 µM (inactive) | 4.23 µM (inactive) | 3.01 µM (inactive) | 3.31 µM (inactive) | 2.41 µM (inactive) | 3.79 µM (inactive) | 9.48 µM (inactive) | 2.31 µM (inactive) | 3.21 µM (inactive) | 1.62 µM (inactive)
COc1ccc2c3c([nH]c2c1)[C@H]1C[C@H]2[C@H](C[C@@H](O)[C@H](OC)[C@H]2C(=O)O)CN1CC3 | > 100 µM (inactive) | > 100 µM (inactive) | > 100 µM (inactive) | > 100 µM (inactive) | > 100 µM (inactive) | > 100 µM (inactive) | > 100 µM (inactive) | > 100 µM (inactive) | > 100 µM (inactive) | > 100 µM (inactive) | > 100 µM (inactive) | > 100 µM (inactive) | > 100 µM (inactive) | > 100 µM (inactive) | > 100 µM (inactive) | > 100 µM (inactive) | > 100 µM (inactive) | > 100 µM (inactive) | > 100 µM (inactive)
O=C1c2ccccc2S(=O)(=O)c2ccccc21 | > 100 µM (inactive) | > 100 µM (inactive) | > 100 µM (inactive) | > 100 µM (inactive) | > 100 µM (inactive) | > 100 µM (inactive) | > 100 µM (inactive) | > 100 µM (inactive) | > 100 µM (inactive) | > 100 µM (inactive) | > 100 µM (inactive) | > 100 µM (inactive) | > 100 µM (inactive) | > 100 µM (inactive) | > 100 µM (inactive) | > 100 µM (inactive) | > 100 µM (inactive) | > 100 µM (inactive) | > 100 µM (inactive)
